For test [1], the system named is Mus musculus. Nature of the test: Antiinflammatory activity against carrageenan-induced paw edema in ICR mouse at 50 mg/kg, ip administered 30 mins before carrageenan challenge assessed after 3 hrs. It counts as functional. Particulars: route intraperitoneal. A general note: In the carrageenan paw model, swelling and tenderness develop within hours.
For test [2], the system named is Mus musculus. Nature of the test: Antiinflammatory activity against carrageenan-induced paw edema in ICR mouse at 50 mg/kg, ip administered 30 mins before carrageenan challenge assessed after 0.5 hrs. It counts as functional. To be noted: route intraperitoneal.
Test [3] concerns Mus musculus. Nature of the test: Antiinflammatory activity against carrageenan-induced paw edema in ICR mouse at 100 mg/kg, ip administered 30 mins before carrageenan challenge assessed after 0.5 hrs. Type of test: functional. Particulars: route intraperitoneal.
The test system of test [4] is Mus musculus. Nature of the test: Antiinflammatory activity against carrageenan-induced paw edema in ICR mouse at 100 mg/kg, ip administered 30 mins before carrageenan challenge assessed after 1 hr. Type of test: functional. Particulars: route intraperitoneal.
Test [5] has as its system Mus musculus. Nature of the test: Antiinflammatory activity against carrageenan-induced paw edema in ICR mouse at 100 mg/kg, ip administered 30 mins before carrageenan challenge assessed after 2 hrs. Type of test: functional. To be noted: route intraperitoneal.
For test [6], the system named is Mus musculus. Nature of the test: Antiinflammatory activity against carrageenan-induced paw edema in ICR mouse at 100 mg/kg, ip administered 30 mins before carrageenan challenge assessed after 5 hrs. Type of test: functional. To be noted: route intraperitoneal.
Test [7] deals with Mus musculus. Nature of the test: Antiinflammatory activity against carrageenan-induced paw edema in ICR mouse at 50 mg/kg, ip administered 30 mins before carrageenan challenge assessed after 5 hrs. Type of test: functional. To be noted: route intraperitoneal.
In test [8] the test system is Mus musculus. Nature of the test: Antiinflammatory activity against carrageenan-induced paw edema in ICR mouse at 100 mg/kg, ip administered 30 mins before carrageenan challenge assessed after 4 hrs. Type of test: functional. To be noted: route intraperitoneal.
For test [9], the system named is Mus musculus. Nature of the test: Antiinflammatory activity against carrageenan-induced paw edema in ICR mouse at 50 mg/kg, ip administered 30 mins before carrageenan challenge assessed after 4 hrs. Type of test: functional. Particulars: route intraperitoneal.
The subject of test [10] is Mus musculus. Nature of the test: Antiinflammatory activity against carrageenan-induced paw edema in ICR mouse at 100 mg/kg, ip administered 30 mins before carrageenan challenge assessed after 3 hrs. Type of test: functional. To be noted: route intraperitoneal.
For test [11], the system named is Mus musculus. Nature of the test: Antiinflammatory activity against carrageenan-induced paw edema in ICR mouse at 50 mg/kg, ip administered 30 mins before carrageenan challenge assessed after 1 hr. It counts as functional. To be noted: route intraperitoneal.
Test [12] has as its system Mus musculus. Nature of the test: Antiinflammatory activity against carrageenan-induced paw edema in ICR mouse at 50 mg/kg, ip administered 30 mins before carrageenan challenge assessed after 2 hrs. It counts as functional. To be noted: route intraperitoneal.
A further test has as its system RAW264.7. Nature of the test: Inhibition of LPS-induced nitric oxide production in mouse RAW264.7 cells assessed as nitrite levels in supernatant after 24 hrs by griess assay. Type of test: functional, cell-based. Background: Nitrite, measured by Griess reagent, commonly stands in for NO production.
Test [13] deals with Mus musculus. Nature of the test: Antiinflammatory activity against carrageenan-induced paw edema in ICR mouse at 4 mg/kg, ip administered 30 mins before carrageenan challenge assessed after 3 hrs. Type of test: functional. Particulars: route intraperitoneal.
The test system of test [14] is Mus musculus. Nature of the test: Antiinflammatory activity against carrageenan-induced paw edema in ICR mouse at 4 mg/kg, ip administered 30 mins before carrageenan challenge assessed after 4 hrs. Type of test: functional. Particulars: route intraperitoneal.
In test [15] the test system is Mus musculus. Nature of the test: Antiinflammatory activity against carrageenan-induced paw edema in ICR mouse at 4 mg/kg, ip administered 30 mins before carrageenan challenge assessed after 1 hr. Type of test: functional. Particulars: route intraperitoneal.
The test system of test [16] is Mus musculus. Nature of the test: Antiinflammatory activity against carrageenan-induced paw edema in ICR mouse at 4 mg/kg, ip administered 30 mins before carrageenan challenge assessed after 0.5 hrs. Type of test: functional. To be noted: route intraperitoneal.
Test [17] deals with Mus musculus. Nature of the test: Antiinflammatory activity against carrageenan-induced paw edema in ICR mouse at 4 mg/kg, ip administered 30 mins before carrageenan challenge assessed after 2 hrs. Type of test: functional. To be noted: route intraperitoneal.
Test [18] has as its system Mus musculus. Nature of the test: Antiinflammatory activity against carrageenan-induced paw edema in ICR mouse at 4 mg/kg, ip administered 30 mins before carrageenan challenge assessed after 5 hrs. Type of test: functional. To be noted: route intraperitoneal.

For the molecule `C[C@@]12CC=C3C(=O)O[C@@H](c4ccoc4)C[C@@]3(C)[C@@H]1CC=CC2=O` [FIBARURETIN D], the Activity with Mus musculus [1] is reported as 21.55%; in the test on Mus musculus [2], 19.44%; in the test with Mus musculus [3] it was 17%; with Mus musculus [4], 20.91%; in the test with Mus musculus [5], 22.79%; in the test with Mus musculus [6], 23.41%. For the same molecule, the Activity stood at 20.5% in the test with Mus musculus [7]; 23.67% in the test on Mus musculus [8]; 20.67% in the test with Mus musculus [9]; 21.47% in the test with Mus musculus [10]; 24.17% in the test with Mus musculus [11]; 25.18% in the test on Mus musculus [12].
For `C[C@@]12C[C@H](c3ccoc3)OC(=O)[C@@H]1CC[C@@]1(CO[C@@H]3O[C@H](CO)[C@@H](O)[C@H](O)[C@H]3O)C(=O)C=CC[C@H]12`, the Activity entry in the test on RAW264.7 was “Dose-dependent effect”.
Turning to `C[C@@]12C[C@H](c3ccoc3)OC(=O)C1=CC[C@]1(C)[C@H]2[C@H]2C=C[C@]1(O)C(=O)O2` [FIBLEUCIN], the Activity in the test with Mus musculus [1] was found to be 21.61%; in the test on Mus musculus [2], 11.8%; in the test with Mus musculus [3], 14.56%; in the test on Mus musculus [4], 17.79%; in the test on Mus musculus [5] it was 20.68%; with Mus musculus [6] it was 26.02%. The Activity in the test with Mus musculus [7] was determined as 25.6%; with Mus musculus [8], 26.19%; in the test on Mus musculus [9], 25.29%; in the test on Mus musculus [10] it was 24.44%; in the test with Mus musculus [11], 13.12%; in the test with Mus musculus [12], 17.97%.
Take `C[C@@]12C[C@H](c3ccoc3)OC(=O)C1=CC[C@]1(C)[C@H]2[C@@H]2OC(=O)[C@@]1(O[C@@H]1O[C@H](CO)[C@@H](O)[C@H](O)[C@H]1O)[C@H]1O[C@@H]21` [FIBRAURINOSIDE]: the Activity entry with RAW264.7 was “Dose-dependent effect”; in the test on Mus musculus [1], 20.36%; in the test on Mus musculus [2], 17.12%; in the test on Mus musculus [3] it was 18.67%; with Mus musculus [4], 23.03%; in the test with Mus musculus [5], 25.07%. The Activity was 24.8% in the test with Mus musculus [6]; 18.48% in the test on Mus musculus [7]; 25.25% in the test on Mus musculus [8]; 20.89% in the test on Mus musculus [9]; 25.03% in the test with Mus musculus [10]; 18.18% with Mus musculus [11]. The same molecule had an Activity in the test with Mus musculus [12] of 18.99%.
On to `C[C@@]12C[C@H](c3ccoc3)OC(=O)C1=CC[C@]1(C)[C@H]2[C@@H]2OC(=O)[C@@]1(O)[C@H]1O[C@@H]21` [FIBRAURIN], for which the Activity result in the test on RAW264.7 is “Dose-dependent effect”; in the test on Mus musculus [1], 30.5%; in the test with Mus musculus [2], 19.68%; in the test with Mus musculus [3] it was 10.1%; in the test with Mus musculus [4] it was 12.44%; in the test on Mus musculus [5], 14%. In addition, the Activity with Mus musculus [6] is 10.61%; with Mus musculus [7], 33.57%; in the test on Mus musculus [8] it was 11.41%; with Mus musculus [9], 32.19%; in the test with Mus musculus [10] it was 10.85%; in the test with Mus musculus [11] it was 27.17%. Besides, the Activity in the test with Mus musculus [12] is recorded as 28.66%.
Take `C[C@@]12C[C@@H](c3ccoc3)OC(=O)[C@H]1CC[C@@H]1[C@H]2C[C@@H]2OC(=O)[C@@]1(O)[C@@H]2O` [FIBRAURETIN B]: the Activity with Mus musculus [1] was 23.43%; in the test on Mus musculus [2], 14%; in the test on Mus musculus [3] it was 11.45%; with Mus musculus [4], 19.17%; in the test on Mus musculus [5], 16.73%; with Mus musculus [6], 18.16%. The Activity with Mus musculus [7] is recorded as 28.34%; in the test with Mus musculus [8] it was 17.69%; in the test on Mus musculus [9] it was 26.73%; in the test on Mus musculus [10], 15.21%; in the test on Mus musculus [11], 20.1%; in the test with Mus musculus [12], 24.03%.
In the case of `C[C@@]12C[C@H](c3ccoc3)OC(=O)[C@@H]1CC[C@]1(C)[C@H]2[C@@H]2OC(=O)[C@@]1(O)[C@H]1O[C@@H]21` [CHASMANTHIN], the Activity is on record as 23.99% with Mus musculus [1]; 15.39% in the test on Mus musculus [2]; 13.15% in the test on Mus musculus [3]; 18.75% in the test with Mus musculus [4]; 21.76% in the test with Mus musculus [5]; 20.71% in the test with Mus musculus [6]. In addition, the Activity was found to be 32.49% in the test with Mus musculus [7]; 23.73% in the test with Mus musculus [8]; 31.6% in the test on Mus musculus [9]; 21.23% with Mus musculus [10]; 18.46% in the test with Mus musculus [11]; 22.41% with Mus musculus [12].
For the molecule `C[C@@]12C[C@H](c3ccoc3)OC(=O)[C@@H]1[C@@H](O)C[C@]1(C)[C@H]2[C@@H]2OC(=O)[C@@]1(O)[C@H]1O[C@@H]21`, the Activity result with RAW264.7 was “Dose-dependent effect”.
Turning to `COc1ccc2c(c1)c(CC(=O)O)c(C)n2C(=O)c1ccc(Cl)cc1` [INDOMETHACIN], the Activity with Mus musculus [13] came out at 18.52%; with Mus musculus [14], 17.04%; in the test on Mus musculus [15], 21.48%; in the test on Mus musculus [16], 20.77%; in the test on Mus musculus [17], 19.53%; with Mus musculus [18], 16.3%.
On to `C[C@@]12C[C@H](c3ccoc3)OC(=O)C1=CC[C@]1(C)[C@H]2[C@H]2C=C[C@]1(O[C@@H]1O[C@H](CO)[C@@H](O)[C@H](O)[C@H]1O)C(=O)O2` [FIBLEUCINOSIDE], for which the Activity in the test on Mus musculus [1] came out at 22.82%; with Mus musculus [2] it was 15.64%; in the test with Mus musculus [3] it was 14.91%; in the test on Mus musculus [4], 19.05%; with Mus musculus [5], 19.82%; in the test with Mus musculus [6], 20.11%. Also, the Activity in the test with Mus musculus [7] turned out to be 23.88%; in the test with Mus musculus [8], 22.01%; with Mus musculus [9], 24.01%; in the test with Mus musculus [10], 21.31%; with Mus musculus [11], 18.8%; in the test on Mus musculus [12], 24.26%.
As for `COC(=O)C1=CCC[C@H]2[C@]3(C)C[C@@H](c4ccoc4)OC(=O)[C@H]3CC[C@@]12C` [FLORIBUNDIC ESTER], the Activity in the test on Mus musculus [1] is 21.84%; in the test with Mus musculus [2], 16.27%; in the test on Mus musculus [3], 13.07%; in the test with Mus musculus [4], 15.46%; in the test on Mus musculus [5] it was 16.78%; in the test on Mus musculus [6], 13.07%. Further, the Activity in the test on Mus musculus [7] is recorded as 20.18%; in the test with Mus musculus [8] it was 14.9%; with Mus musculus [9], 21.85%; in the test on Mus musculus [10], 13.95%; in the test on Mus musculus [11], 20.95%; in the test on Mus musculus [12] it was 21.51%.
With `C[C@@]12[C@H]3CC=C[C@@]1(O[C@@H]1O[C@H](CO)[C@@H](O)[C@H](O)[C@H]1O)C(=O)O[C@@H]2C[C@]1(O)C(=O)O[C@H](c2ccoc2)C[C@@]31C`, the Activity result in the test on RAW264.7 was “Dose-dependent effect”.
